We go through 1 molecule from US20240124510A1, “Cyclic Glycoaminoacid Derivatives” (TFCHEM, priority 2021, published 2024).

Where “and” joins values, the source holds several entries; their conditions need not be identical. Equal values may be shown once.

One test deals with IL-6. The test is described as follows: Extracellular secretion of IL-6 by preadipocytes in inflammatory condition (ELISA). The class given is cell-based, human. Particulars: for IL-6 secretion, Mean / IL-6 secretion, Values: normalized by cells number (DAPI); for IL-6 secretion, Values: individual values; for IL-6 secreted, normalized by cell number, in % of AcMC condition: preadipocytes/adipocytes. How it is done:
Preadipocytes have been isolated from human female hypodermis (body mass index <30 kg/m2 and <45 years old). Preadipocytes have been cultured for 24 h in 100 μl of DMEM-10% Fetal Bovine Serum (FBS) in 96-well plates. Then cells were treated to induce their differentiation in a classical or an inflammatory environment for 13 days.
To induce the preadipocytes differentiation cells were incubated in a proadipogenic cocktail (PAC) including insulin, glucocorticoid, 3-isobutyl-1-methylxanthine (IBMX), and thiazolinedione in DMEM.
To induce a fibro-inflammatory environment, cells were treated with an activated human macrophage-conditioned medium (AcMC) prepared in RPMI medium. A treatment with Dexamethasone (DXM) at 100 nM was used as anti-inflammatory response control. At D0: preadipocytes have been treated in the following conditions: • “Undifferentiation”: DMEM+¼ RPMI medium • “Differentiation”: PAC+¼ RPMI medium • “AcMC” i.e. inflammatory condition: PAC+¼ AcMC • “AcMC+DXM”: PAC+[…] AcMC+anti-inflammatory DXM at 100 nM • “AcMc+compounds”: PAC+14 AcMC+compounds to be tested
All conditions have been performed in triplicate. The medium has been changed every 2 days for 13 days.
At D14: during the last 24 h of culture, the medium has been replaced by DMEM/F12 medium in all conditions, to collect cells' secretions.
After 13 days, the 24 h culture media of the different conditions have been collected at the end of the treatment period. The concentrations of IL-6, procollagen I and MCP1 have been evaluated by ELISA assays using specific kits (for IL-6: DY206, DuoSet ELISA, R&D Systems; for Procollagen I: DY6220-05, DuoSet ELISA, R&D Systems; for MCP1: DY279-05 DuoSet ELISA, R&D Systems) according to the manufacture's recommendations. Values have been normalized to the cell number determined by DAPI staining.
Quantity of IL-6 secreted in medium was measured and was normalized by cell number in each culture condition. Data are represented in percentage of proinflammatory control condition (AcMC condition).

For test [1], the system named is Normal human epidermal keratinocytes (NHEK). The test is described as follows: Total lipid neosynthesis in NHEK ([14C]-acetate incorporation). Type of test: cell-based. The following applies: 48 hours; for [14C]-Acetate (cpm): individual replicates. How it is done: Normal human epidermal keratinocytes (NHEK) were seeded in 12-well plates and incubated in culture medium for 24 hours. The medium was then replaced by culture medium containing or not (control) the test compounds or the reference (CaCl2+Vitamin C at 1.5 mM+200 μg/ml respectively) in the presence of the radioactive tracer [^14C]-acetate. Cells were incubated for 48 hours. All experimental conditions were performed in triplicate.
Culture medium was Keratinocyte-SFM supplemented with Epidermal Growth Factor (EGF) 0.25 ng/ml, Pituitary extract (PE) 25 μg/ml and Gentamycin 25 μg/ml. The assay medium was Keratinocyte-SFM supplemented with Gentamycin 25 μg/ml.
At the end of incubation, cells were rinsed with PBS solution and then detached from their support by trypsin treatment. The [^14C]-acetate incorporation was then measured by liquid scintillation (measure of radioactivity). The incorporation is correlated with the total lipid neosynthesis. Results presented in Table 23 are expressed as cpm and % of control.

As for `N[C@H]1CCCN(CC(F)(F)[C@]2(O)O[C@H](CO)[C@H](O)[C@H](O)[C@H]2O)C1=O` [Compound 6], in the test on IL-6 (AcMC + 1 mg/ml), the “IL-6 secretion, Mean” value is listed as 84.0 % of AcMC condition; the “IL-6 secretion, Values” was 66.1 % of AcMC condition and 95.1 % of AcMC condition and 90.8 % of AcMC condition. In the test on IL-6 (AcMC + 2 mg/ml), the “IL-6 secretion, Mean” value is reported as 28.1 % of AcMC condition; the “IL-6 secretion, Values” was 25.5 % of AcMC condition and 26.8 % of AcMC condition and 31.9 % of AcMC condition. The “IL-6 secreted, normalized by cell number, in % of AcMC condition” value in the test with IL-6 (1 mg/ml) amounted to 84%. For the same molecule, the “IL-6 secreted, normalized by cell number, in % of AcMC condition” value with IL-6 (2 mg/ml) turned out to be 28.1%. The “IL-6 secreted, normalized by cell number, in % of AcMC condition” value in the test on IL-6 (2 mg/ml, listed as compound 6) was 28.1% and 28%. Besides, in test [1] (1 mg/ml), the “% Control (total lipid neosynthesis)” value worked out at 110%; the “% Stimulation (total lipid neosynthesis)” value came to 10%; the “[14C]-Acetate Mean (cpm)” value was 78584 cpm; the “[14C]-Acetate (cpm)” value was 77267 cpm and 78905 cpm and 79581 cpm. Besides, the “Stimulation of lipid synthesis compared to the control” value in test [1] (1 mg/ml) is recorded as 10%. Further, in test [1] (3 mg/ml), the “% Control (total lipid neosynthesis)” value stood at 121%; the “% Stimulation (total lipid neosynthesis)” value came out at 21%; the “[14C]-Acetate Mean (cpm)” value came to 86022 cpm; the “[14C]-Acetate (cpm)” value was 84794 cpm and 87349 cpm and 85922 cpm and 86860 cpm. Also, in test [1] (3 mg/ml), the “Stimulation of lipid synthesis compared to the control” value was 21%.
